According to patent US9783527B2, “Indazole ureas and method of use” (AbbVie Inc., priority 2014, dated 2017):

What was measured:
human Nav1.7 = human Nav1.7 (Homo sapiens (Human), UniProt Q15858); assay: FRET-based membrane potential assay, recombinant human sodium channel Nav1.7; assay type: cell-based; conditions: HEK293 cells stably expressing recombinant human Nav1.7; depolarization with veratridine (EC80) + scorpion venom
Summary of the method: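 IC50 derived by four-parameter Hill fit of percent inhibition of depolarization, measured as peak F440-480/F565-625 ratio over baseline. Stable human Nav1.7 HEK293 cells, dye-loaded with CC2-DMPE and DiSBAC2(3)/VABSC-1 at room temperature, received compound 3 min ahead of veratridine (EC80) plus scorpion venom.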

[1] = system: spinal nerve ligation-induced neuropathic pain in rats; assay: Rat spinal nerve ligation (SNL) model of neuropathic pain, von Frey paw withdrawal threshold; assay type: in vivo; conditions: SNL dose 100 mg/kg; male Sprague Dawley rats, mechanical sensitivity (von Frey)
Source text: Rat Spinal Nerve Ligation (SNL) Model of Neuropathic Pain.
A model of spinal nerve ligation-induced (SNL model) neuropathic pain as originally described by Kim and Chung (Kim, S. H. and J. M. Chung, 1992, Pain 50, 355) was used to test a compound of the present application. The male Sprague Dawley rats (Charles River Laboratories, Wilmington, Mass.), weighing 150-175 g at the time of surgery, were placed under isoflurane anesthesia and a 1.5 cm incision was made dorsal to the lumbosacral plexus. The paraspinal muscles (left side) were separated from the spinous processes, the left L5 and L6 spinal nerves isolated, and tightly ligated with 5-0 silk suture distal to the dorsal root ganglion. Care was taken to avoid ligating the L4 spinal nerve. Following spinal nerve ligation, a minimum of 7 days of recovery and no more than 3 weeks was allowed prior to the behavioral testing (mechanical sensitivity). Only rats with threshold scores ≦4.5 g were considered allodynic and utilized in pharmacological experiments.
Mechanical sensitivity was measured using calibrated von Frey filaments (Stoelting, Wood Dale, Ill.). Paw withdrawal threshold (PWT) was determined by using the Dixon's up-down method (Dixon, W. J., 1980, Ann. Rev. Pharmacol. Toxicol., 20, 441). Rats were placed into inverted individual plastic containers (20×12.5×20 cm) on top of a suspended wire mesh with a 1 cm^2 grid to provide access to the ventral side of the hind paws, and acclimated to the test chambers for 20 minutes. The von Frey filaments were presented perpendicularly to the plantar surface of the selected hind paw, and then held in this position for approximately 8 seconds with enough force to cause a slight bend in the filament. Positive responses included an abrupt withdrawal of the hind paw from the stimulus, or flinching behavior immediately following removal of the stimulus. A 50% withdrawal threshold was determined using an up-down procedure (Dixon, 1980). A percent maximal possible effect (% MPE) of testing compound was calculated according to the formula: (Log [compound-treated threshold]−Log [vehicle-treated threshold])/(Log [maximum threshold]−Log [vehicle-treated threshold])×100%, where the maximum threshold was equal to 15 g.
The animals were housed in Association for Assessment and Accreditation of Laboratory Animal Care (AAALAC) approved facilities at AbbVie Inc. in a temperature-regulated environment under a controlled 12-hour light-dark cycle, with lights on at 6:00 a.m. Food and water were available ad libitum at all times except during testing. All testing was done following procedures outlined in protocols approved by AbbVie Inc.s' Institutional Animal Care and Use Committee.

human Nav1.7, sequence (Q15858 whole entry): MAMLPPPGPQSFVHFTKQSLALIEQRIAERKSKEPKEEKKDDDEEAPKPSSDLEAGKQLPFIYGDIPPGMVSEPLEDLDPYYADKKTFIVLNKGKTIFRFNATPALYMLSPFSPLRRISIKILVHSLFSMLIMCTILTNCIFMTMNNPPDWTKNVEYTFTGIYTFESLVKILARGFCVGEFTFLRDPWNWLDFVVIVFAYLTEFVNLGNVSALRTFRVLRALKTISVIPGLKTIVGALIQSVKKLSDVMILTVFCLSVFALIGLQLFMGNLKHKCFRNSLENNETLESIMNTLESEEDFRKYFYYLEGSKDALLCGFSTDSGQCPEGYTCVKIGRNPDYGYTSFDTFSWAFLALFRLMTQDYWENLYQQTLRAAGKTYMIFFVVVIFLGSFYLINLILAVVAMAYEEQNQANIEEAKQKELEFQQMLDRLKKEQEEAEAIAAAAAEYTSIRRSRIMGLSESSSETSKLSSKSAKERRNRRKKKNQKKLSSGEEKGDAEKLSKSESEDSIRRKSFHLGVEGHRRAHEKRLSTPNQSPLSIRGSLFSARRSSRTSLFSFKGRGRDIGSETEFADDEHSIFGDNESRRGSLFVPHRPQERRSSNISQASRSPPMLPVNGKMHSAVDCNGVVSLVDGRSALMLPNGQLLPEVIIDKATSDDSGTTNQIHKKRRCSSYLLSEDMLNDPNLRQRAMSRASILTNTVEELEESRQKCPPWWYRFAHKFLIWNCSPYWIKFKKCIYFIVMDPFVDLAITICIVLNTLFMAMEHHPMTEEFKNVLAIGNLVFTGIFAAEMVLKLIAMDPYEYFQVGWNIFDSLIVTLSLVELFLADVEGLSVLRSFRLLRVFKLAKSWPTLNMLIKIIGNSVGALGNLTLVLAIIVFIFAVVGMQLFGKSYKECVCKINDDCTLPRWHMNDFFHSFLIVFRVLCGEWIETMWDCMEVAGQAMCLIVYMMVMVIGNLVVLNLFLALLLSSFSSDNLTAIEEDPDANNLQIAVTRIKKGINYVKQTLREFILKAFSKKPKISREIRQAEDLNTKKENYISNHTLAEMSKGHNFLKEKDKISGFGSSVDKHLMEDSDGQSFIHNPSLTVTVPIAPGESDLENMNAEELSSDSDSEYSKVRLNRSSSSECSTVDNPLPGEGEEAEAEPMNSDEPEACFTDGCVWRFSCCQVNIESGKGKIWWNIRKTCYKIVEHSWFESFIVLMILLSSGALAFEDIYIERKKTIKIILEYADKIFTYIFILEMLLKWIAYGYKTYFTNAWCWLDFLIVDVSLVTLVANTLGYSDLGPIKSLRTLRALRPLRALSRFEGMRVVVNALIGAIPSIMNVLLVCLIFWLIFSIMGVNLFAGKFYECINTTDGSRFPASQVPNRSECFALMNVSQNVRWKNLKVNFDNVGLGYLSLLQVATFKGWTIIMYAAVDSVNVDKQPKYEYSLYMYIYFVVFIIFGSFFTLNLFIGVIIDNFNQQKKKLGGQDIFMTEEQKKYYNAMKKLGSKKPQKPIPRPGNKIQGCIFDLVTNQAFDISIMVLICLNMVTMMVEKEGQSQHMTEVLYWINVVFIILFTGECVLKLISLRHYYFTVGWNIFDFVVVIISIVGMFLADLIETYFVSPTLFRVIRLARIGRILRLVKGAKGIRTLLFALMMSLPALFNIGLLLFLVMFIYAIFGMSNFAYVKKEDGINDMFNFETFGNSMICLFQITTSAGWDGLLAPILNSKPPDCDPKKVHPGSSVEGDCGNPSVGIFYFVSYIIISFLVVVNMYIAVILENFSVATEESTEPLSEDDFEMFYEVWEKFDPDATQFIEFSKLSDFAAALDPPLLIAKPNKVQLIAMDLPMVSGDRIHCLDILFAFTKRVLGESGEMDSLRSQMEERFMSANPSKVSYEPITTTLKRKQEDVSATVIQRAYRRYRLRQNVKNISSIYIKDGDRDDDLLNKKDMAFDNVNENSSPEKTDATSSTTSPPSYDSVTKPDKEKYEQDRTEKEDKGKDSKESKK

Structure (SMILES)	IC50 (human Nav1.7) [µM]	SNL MPE (%) [1] [%]
Cc1noc(C(C)N2CCN(c3cccc4c3cnn4-c3ccccc3F)C2=O)n1 (racemic) [Example 46, 1-[1-(2-fluorophenyl)-1H-indazol-4-yl]-3-[1-(3-methyl-1,2,4-oxadiazol-5-yl)ethyl]imidazolidin-2-one]	1.87	59
C[C@H]1CCCN1C(=O)CN1CCN(c2cccc3c2cnn3-c2ccccc2F)C1=O [Example 15, 1-[1-(2-fluorophenyl)-1H-indazol-4-yl]-3-{2-[(2S)-2-methylpyrrolidin-1-yl]-2-oxoethyl}imidazolidin-2-one]	0.625	74
Cc1noc(C)c1CN1CCN(c2cccc3c2cnn3-c2ccccc2F)C1=O [Example 27, 1-[(3,5-dimethyl-1,2-oxazol-4-yl)methyl]-3-[1-(2-fluorophenyl)-1H-indazol-4-yl]imidazolidin-2-one]	0.546	63
O=C(CN1CCN(c2cccc3c2cnn3-c2ccccc2F)C1=O)N[C@@H]1CCOC1 [Example 55, 2-{3-[1-(2-fluorophenyl)-1H-indazol-4-yl]-2-oxoimidazolidin-1-yl}-N-[(3R)-tetrahydrofuran-3-yl]acetamide]	2.24	91
